This note sets out measurements from PubChem BioAssay AID2742 (NMMLSC, 2010).

Values joined by “and” are separate entries in the source; they are usually repeats but may differ in a detail not shown here. Identical values can stand only once. Active and inactive are the calls of the source.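 Rule for the calls: active = fitted half-maximal concentration for changing background-corrected GFP signal at or below a set limit; inactive = the rest.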

This assay in a line: TOR pathway reporter MEP2-GFP, concentration series – S. cerevisiae, flow cytometry GFP, MLPCN hits, dose response (AID 2742).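 Note: GFP tag reports level of MEP2 protein as a downstream target of TOR signalling.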 To be noted: S. cerevisiae MEP2-GFP strain, flow cytometry fluorescence, 3 h; at 33 µM (top of the series). For orientation: Flow cytometry measures light scatter and fluorescence of single cells or particles in a stream.
In the case of `O=c1c2cc(Cl)ccc2nc(-c2ccc([N+](=O)[O-])cc2)n1O`, the GFP fluorescence (kMESF), higher = increase was 4.58 kMESF (inactive).

As to `CN(C)c1ccc(/C=C/c2cc[n+](C)cc2)cc1`, the GFP fluorescence (kMESF), higher = increase is 2.76 kMESF (inactive).

For `Oc1c(I)cc(Cl)c2cccnc12`, the GFP fluorescence (kMESF), higher = increase is 5.67 kMESF (inactive).

For the molecule `Cc1ccc(C(CC(=O)O)NC(=O)c2ccc(S(=O)(=O)N3CC(C)OC(C)C3)cc2)cc1` (stereo not given), the GFP fluorescence (kMESF), higher = increase was 3.08 kMESF (inactive).

Consider `Cc1ccnc(N2C(=O)c3cccc4c([N+](=O)[O-])ccc(c34)C2=O)c1`, for which the GFP fluorescence (kMESF), higher = increase is 24.6 kMESF (inactive).

With `O=C(/C=C/c1ccc(F)cc1)NC(=S)NNC(=O)c1cnccn1`, the GFP fluorescence (kMESF), higher = increase was 4.9 kMESF (inactive).

`COc1cc(NC(=O)c2ccccc2[N+](=O)[O-])ccc1NC(=O)c1cc2ccccc2o1`: the GFP fluorescence (kMESF), higher = increase is 2.3 kMESF (inactive).

In the case of `COc1ccc(NC(=O)/C(Cl)=C(/Cl)S(=O)Cc2ccccc2)cn1` (stereo not given), the GFP fluorescence (kMESF), higher = increase was 4.75 kMESF (inactive).

Consider `CCOC(=O)CCS(=O)(=O)c1nc(-c2ccccc2)cc(C(F)(F)F)n1`, for which the GFP fluorescence (kMESF), higher = increase is 7.24 kMESF (inactive).

For the molecule `COC(=O)CCCC1=CC2=CC(=O)C(C)(OC(=O)CCc3ccccc3)C(=O)C2=CO1` (stereo not given), the GFP fluorescence (kMESF), higher = increase is 1.97 kMESF (inactive).

For `N=C1S/C(=C\c2ccco2)C(=O)N1c1nccs1`, the GFP fluorescence (kMESF), higher = increase was 4.56 kMESF (inactive).

With `COc1ccc(CCNC2=C(Cl)C(=O)N(CCc3ccc(OC)c(OC)c3)C2=O)cc1OC`, the GFP fluorescence (kMESF), higher = increase was 2.9 kMESF (inactive).

As to `COc1ccc(NC(=O)/C(C#N)=C/c2ncc([N+](=O)[O-])n2C)c(OC)c1`, the GFP fluorescence (kMESF), higher = increase is 4.5 kMESF (inactive).

Regarding `CC1(C(=O)NC(=S)NNC(=O)c2ccncc2)CCCCC1`, the GFP fluorescence (kMESF), higher = increase was 3.51 kMESF (inactive).

Take `CC(C)(C)n1nc(-c2ccc(Cl)cc2)c2c(N)ncnc21`: the GFP fluorescence (kMESF), higher = increase was 6.05 kMESF (inactive).

In the case of `COc1cc(SSc2cc(OC)cc([N+](=O)[O-])c2N)c(N)c([N+](=O)[O-])c1`, the GFP fluorescence (kMESF), higher = increase is 5.29 kMESF (inactive).

Turning to `CC(C)(C)c1cc(C(c2cccnc2)N2CCN(CCO)CC2)cc(C(C)(C)C)c1O` (stereo not given), the GFP fluorescence (kMESF), higher = increase was -4.66 kMESF (inactive).

In the case of `O=C(OCC(=O)N1CCN(C(=O)c2ccco2)CC1)c1cc(-c2ccc(F)cc2)nc2ccccc12`, the GFP fluorescence (kMESF), higher = increase is 4.46 kMESF (inactive) and 3.18 kMESF (inactive).

Turning to `O=C(Nc1nc(-c2ccccn2)cs1)c1cc2ccccc2o1`, the GFP fluorescence (kMESF), higher = increase is 5.47 kMESF (inactive).

In the case of `COc1ccc(/C=C/C(=O)C2C(=O)C=C(C)OC2=O)cc1O` (stereo not given), the GFP fluorescence (kMESF), higher = increase is 5.45 kMESF (inactive).

Take `COc1cccc(N=Nc2ccc(O)c3ncccc23)c1`: the GFP fluorescence (kMESF), higher = increase was 5.8 kMESF (inactive).

For the molecule `CC(=O)Oc1oc(-c2ccccc2)nc1C=Nc1ccccc1`, the GFP fluorescence (kMESF), higher = increase is 3.71 kMESF (inactive).

In the case of `CCN(CC)c1ccc(/C=C2/C(=O)c3ccc(C(=O)O)cc3C2=O)cc1`, the GFP fluorescence (kMESF), higher = increase was 3.08 kMESF (inactive).

Turning to `Cc1ccc(C(=O)NNC(=S)NC(=O)c2ccco2)cc1`, the GFP fluorescence (kMESF), higher = increase was 4.91 kMESF (inactive).

As for `CN(C)c1ccc(N=Cc2nc(-c3ccccc3)oc2OC(=O)c2cccc(Cl)c2)cc1`, the GFP fluorescence (kMESF), higher = increase is 3.27 kMESF (inactive).

In the case of `O/C=c1\ccc2cccc3nc(C(F)(F)F)nc1c23`, the GFP fluorescence (kMESF), higher = increase was 14.3 kMESF (inactive).

For `COc1cc(/C=C2\C(=O)ON=C2c2ccccc2)cc(OC)c1OC`, the GFP fluorescence (kMESF), higher = increase was 3.21 kMESF (inactive).

In the case of `COc1cccc2cc(-c3nc4ccccc4o3)c(=O)oc12`, the GFP fluorescence (kMESF), higher = increase was 1.66 kMESF (inactive).

Take `O=c1[nH]c(-c2ccccn2)nc(C(F)(F)F)c1Br`: the GFP fluorescence (kMESF), higher = increase was 4.02 kMESF (inactive).

Turning to `Cc1ccc(-c2nc(C)sc2CC(=O)Nc2nnc(C)s2)cc1`, the GFP fluorescence (kMESF), higher = increase is 1.85 kMESF (inactive).

For `O=C(/C=C/c1ccccc1)c1cc(Br)ccc(=O)c1O`, the GFP fluorescence (kMESF), higher = increase is -11.3 kMESF (inactive).

With `Cc1sc(/C=C2\C(=O)ON=C2c2ccccc2)cc1Br`, the GFP fluorescence (kMESF), higher = increase is 1.67 kMESF (inactive).

Take `O=C1N(c2ccccc2C(F)(F)F)OC1(Cc1ccccc1)c1ccccc1` (stereo not given): the GFP fluorescence (kMESF), higher = increase was 2.86 kMESF (inactive).

In the case of `CN(O)/C=c1/ccc2c(n1)C(=O)C=CC=2`, the GFP fluorescence (kMESF), higher = increase was 3.88 kMESF (inactive).

For `Cc1cccc(N=Nc2ccc(O)c3ncccc23)c1`, the GFP fluorescence (kMESF), higher = increase is 3.18 kMESF (inactive).

Regarding `N/C(Cc1ccc(Cl)cc1)=N\OC(=O)c1cccc2ccccc12`, the GFP fluorescence (kMESF), higher = increase is 3.73 kMESF (inactive).

Consider `O=C1C(Cl)=C(Nc2ccccc2O)C(=O)N1c1ccccc1`, for which the GFP fluorescence (kMESF), higher = increase was 4.11 kMESF (inactive).

On to `COc1cc(/C=C2\C(=O)ON=C2c2ccc(Cl)cc2)ccc1O`, for which the GFP fluorescence (kMESF), higher = increase is 3.71 kMESF (inactive).

Take `CC(=O)c1ccc(N2CCN(C(=O)c3ccc(Br)cc3)CC2)c(F)c1`: the GFP fluorescence (kMESF), higher = increase is 2.85 kMESF (inactive).

`COc1ccc(-c2cc3cc(C(=O)O)ccn3c2C(=O)c2ccccc2)cc1`: the GFP fluorescence (kMESF), higher = increase was 3.23 kMESF (inactive).

For `O=[N+]([O-])c1cc(O)c2ncccc2c1`, the GFP fluorescence (kMESF), higher = increase was 5.96 kMESF (inactive).

In the case of `O=C(Nc1ccc(NC(=O)c2cc3ccccc3o2)cc1)c1ccc2c(c1)OCCO2`, the GFP fluorescence (kMESF), higher = increase is 2.4 kMESF (inactive).

On to `Cc1nn2c(-c3ccncc3)nnc2c2ccccc12`, for which the GFP fluorescence (kMESF), higher = increase was 1.97 kMESF (inactive).

Turning to `CC1=NNC(=O)/C1=C\c1cn(-c2ccccc2)nc1-c1cccs1`, the GFP fluorescence (kMESF), higher = increase was 3.14 kMESF (inactive).

On to `COc1cccc(/C=C2\C(=O)N(c3cccc(C)c3)C(=O)c3ccccc32)c1`, for which the GFP fluorescence (kMESF), higher = increase was 4.32 kMESF (inactive).

As for `C=CCOc1cccc(C(=O)/C=C2/C(=O)Nc3ccccc32)c1`, the GFP fluorescence (kMESF), higher = increase was 3.41 kMESF (inactive).

For the molecule `O=C(NC(=S)NNC(=O)[C@H]1C[C@@H]1c1ccccc1)c1cccc(F)c1`, the GFP fluorescence (kMESF), higher = increase was 7.02 kMESF (inactive).

With `COc1ccc(OCC(=O)NNC(=S)NC(=O)C2CCCCC2)cc1`, the GFP fluorescence (kMESF), higher = increase is 3.25 kMESF (inactive).

Turning to `COc1cccc(/C=C/C(=O)c2c(O)cc(C)oc2=O)c1O`, the GFP fluorescence (kMESF), higher = increase is 4.26 kMESF (inactive).

Consider `CC(=O)Oc1oc(-c2ccccc2)nc1C=Nc1ccc(N(C)C)cc1`, for which the GFP fluorescence (kMESF), higher = increase was 3.44 kMESF (inactive).

With `O=[N+]([O-])c1ccc(-c2cn3nc(-c4ccccc4)c(-c4ccccc4)nc3n2)cc1`, the GFP fluorescence (kMESF), higher = increase is 4.08 kMESF (inactive).

For `CCN(CC)c1ccc(/C=C2\C(=O)c3ccc(C(=O)O)cc3C2=O)cc1`, the GFP fluorescence (kMESF), higher = increase is 47.5 kMESF (inactive).

For the molecule `O=C1ON=C(c2ccccc2)/C1=C\c1ccco1`, the GFP fluorescence (kMESF), higher = increase is 4.59 kMESF (inactive).

For the molecule `CC(C)(C)c1nnc(N/N=C/c2cc(Br)ccc2O)n(N)c1=O`, the GFP fluorescence (kMESF), higher = increase was 2.57 kMESF (inactive).

Turning to `O=C(Nc1ccc(Cl)cc1Cl)c1cccc(N2C(=O)C=CC2=O)c1`, the GFP fluorescence (kMESF), higher = increase is 4.39 kMESF (inactive).

Consider `O=c1cc(CSc2ccc(Cl)cc2)nc(-c2ccccn2)[nH]1`, for which the GFP fluorescence (kMESF), higher = increase is 3.46 kMESF (inactive).

Consider `C[C@H]1C[C@@H](C)C(=O)[C@@H]([C@H](O)CC2CC(=O)NC(=O)C2)C1`, for which the GFP fluorescence (kMESF), higher = increase was 3.18 kMESF (inactive).

As to `CCN1/C(=C/C=C/c2sc3ccccc3[n+]2CC)Sc2ccccc21`, the GFP fluorescence (kMESF), higher = increase is 105 kMESF (inactive).

Turning to `C/C(=N\NC(=O)c1cc2ccccc2cc1O)c1ccccn1`, the GFP fluorescence (kMESF), higher = increase was 3.61 kMESF (inactive).

With `Cc1cccc(C(=O)NNC(=S)NC(=O)c2ccccc2)c1`, the GFP fluorescence (kMESF), higher = increase was 5.31 kMESF (inactive).

`O=C(/C=C/Sc1ncn[nH]1)c1ccc(Cl)cc1`: the GFP fluorescence (kMESF), higher = increase is 4.24 kMESF (inactive).

`O=C1c2cccc3c([N+](=O)[O-])ccc(c23)C(=O)N1c1ccccn1`: the GFP fluorescence (kMESF), higher = increase was 12.2 kMESF (inactive).

For the molecule `Oc1c(C(Nc2nc3ccccc3s2)c2ccco2)ccc2cccnc12` (stereo not given), the GFP fluorescence (kMESF), higher = increase was 5.51 kMESF (inactive).

On to `CCN(CC)c1ccc2cc(-c3nc(-c4ccc(OC)cc4)cs3)c(=O)oc2c1`, for which the GFP fluorescence (kMESF), higher = increase was 0.72 kMESF (inactive).

Turning to `CC(=O)Oc1cccc(N2C(=O)c3cccc4c([N+](=O)[O-])ccc(c34)C2=O)c1`, the GFP fluorescence (kMESF), higher = increase was 7.84 kMESF (inactive).

As to `CCc1ccc(/C=C/C(=O)c2cc(Br)ccc(=O)c2O)cc1`, the GFP fluorescence (kMESF), higher = increase is 5.16 kMESF (inactive).

For the molecule `O=S(=O)(CCN(CCS(=O)(=O)C(F)(F)F)CC1CCCO1)C(F)(F)F` (stereo not given), the GFP fluorescence (kMESF), higher = increase is 4.69 kMESF (inactive).

Consider `COc1ccc(N=Cc2nc(-c3ccccc3)oc2OC(C)=O)cc1`, for which the GFP fluorescence (kMESF), higher = increase was 3.51 kMESF (inactive).

For the molecule `COc1ccc(N2CCN(C(=O)c3ccc(Br)cc3)CC2)c([N+](=O)[O-])c1`, the GFP fluorescence (kMESF), higher = increase is 2.28 kMESF (inactive).

For `COc1ccc(Cl)cc1C(Nc1cccnc1)c1ccc2cccnc2c1O` (stereo not given), the GFP fluorescence (kMESF), higher = increase is 5.91 kMESF (inactive).

With `COc1ccc(-c2cc(C(F)(F)F)nc(S(C)(=O)=O)n2)cc1`, the GFP fluorescence (kMESF), higher = increase was 5.2 kMESF (inactive).

For `O=[N+]([O-])c1c(Nc2ccccn2)cc(Cl)c2nonc12`, the GFP fluorescence (kMESF), higher = increase is 21.3 kMESF (inactive).

For `COc1cc(/C=C/c2ccc3c(Br)cc(Br)c(O)c3n2)ccc1O`, the GFP fluorescence (kMESF), higher = increase is 9.24 kMESF (inactive).

As for `COc1ccc(C2=CC3=C(Br)C(=O)C(C)(O)C(=O)C3=CO2)cc1` (stereo not given), the GFP fluorescence (kMESF), higher = increase was -0.97 kMESF (inactive).

Take `CC(Oc1ccc2ccccc2c1)C(=O)NNC(=S)NC(=O)c1ccco1` (stereo not given): the GFP fluorescence (kMESF), higher = increase is 4.16 kMESF (inactive).
